# Values joined by “and” are separate entries in the source; they are usually repeats but may differ in a detail not shown here. Identical values can stand only once.
# Experiments:
# [1] = tested on: Cor.At® cells (mouse embryonic stem cell derived cardiomyocytes); assay: In vitro cytotoxicity on Cor.At cardiomyocytes (neutral red uptake); assay type: cell-based; conditions: 48 h
# Description: FIG. 5. In vitro cellular toxicity of PhAc-ALGP-Dox and Doxorubicin on Cor.At® cells (mouse embryonic stem cell derived cardiomyocytes). As non-specific control, the test was also performed on inactivated mouse embryonic fibroblasts (MEF). Cells were cultured for 48 h in the presence of drugs and a neutral red uptake test was performed to determine cell viability. Results represent the cytotoxicity curves. The IC50 values were calculated from the cytotoxicity curves using the Prism GraphPad software 5.0.
# The in vitro cardiotoxicity test was carried out in a relevant and predictive in vitro model for cardiac safety screening in early lead optimization using mouse embryonic stem cell derived cardiomyocytes (Cor.At®, Axiogenesis (Germany)). Cor.At® cardiomyocytes provide a standardized, homogenous and reproducible cell system for the in vitro classification of a compound's cardio-cytotoxic potential. After incubation with test compounds, the neutral red uptake test was used to determine effects which directly affect the viability and integrity of cardiac cells when compared to a non-specific reference cell type, e.g. mouse fibroblasts (MEF).
# in vivo = conditions: female, OF-1, mouse, ip, 92 umol/kg
# Description: Time evolution of blood concentration of PhAc-ALGP-Dox and its metabolites (A) or of Doxorubicin (B) after intraperitoneal injection to OF-1 female wild type mice at the equimolar dose of 92 μmol/kg. Results represent the mean concentration±SD (n=3).
# Pharmacokinetic tissue distribution studies were performed using OF-1 mice. Doxorubicin and PhAc-ALGP-Dox were dissolved in saline at the dose of 9.2 mM and administered to mice by intraperitoneal route (10 μL/g, 6 mice per group). At different time points after drug administration (5 min, 30 min, 1 h, 4 h, and 24 h), blood samples were collected from the lateral tail vein of three mice using EDTA-coated microtubes (Starsted). After 24 h, 3 mice per group were sacrificed by cervical dislocation and hearts were collected. They were incised and rinsed carefully in phosphate buffer saline (to eliminate blood in the cardiac cavities), dried on paper and frozen in liquid nitrogen. They were stored until analysis. The hearts were homogenized with an Ultraturrax homogenizer in 1.5 mL water. The protein concentration was measured using the microBCA protein assay (Pierce). The drug tissue quantification was made by HPLC after extraction: 150 μL of acetonitrile was added to the 50 μL samples. Samples were vortexed and centrifuged for 10 min at 13 000 rpm at room temperature. Supernatant was collected. Samples were buffered by addition of 200 mM formiate buffer pH 4.5 (1 V sample supernatant+3 V buffer) before HPLC analysis (fluo detection ex=235 nm em=560 nm).
# [2] = tested on: MX-1 mammary carcinoma human xenografts; assay: Efficacy after repeated ip injections (2Q1D5×2W), MX-1 xenograft; assay type: in vivo, NMRI nude mice; conditions: for TGI [% (day)]: day 35; for body weight loss (in words): Doxorubicin 1 μmol/kg (MTD), PhAc-ALGP-Dox 50 μmol/kg, ip 2Q1D5×2W
# Description: FIG. 10. […] Drugs or controls were administered by the i.p. route twice a day for five consecutive days (arrows). Treatment was repeated with 72 hours interval between two cycles.
# [3] = tested on: LoVo colon carcinoma human xenografts; assay: Efficacy, similar study, ip 2Q1D5×2W (Table 9)
# Description: The efficacy of PhAc-ALGP-Dox was assessed using athymic mice (nude/nude NMRI) carrying ectopic xenograft of human LoVo colon carcinoma or of MX-1 mammary carcinoma in comparison with free Doxorubicin. Tumors were established by a subcutaneous implantation of cells (10^7 cells) in the right flank of 6 weeks old female NMRI nude mice (Harlan). Treatments were administered when the tumors reached a size of 150-200 mm^3 (measured using a caliper and calculated with the following formula: […]). Animals were randomly assigned to groups of 4 to-6 animals. […] Compounds were delivered by bolus intraperitoneal injection (ip) at 10 μl/g. During the course of the experiment, clinical signs, body weight and tumor volume were controlled twice a week. Results are presented as the evolution of mean tumor volume as a function of time. Optimal T/C (ratio of mean tumor volume of treated versus control mice) values and TGD (tumor growth delay in reaching 1000 mm^3) were used as a measure of treatment efficacy. […] A statistical analysis was performed at day 22 using the Mann Whitney t test of the Graph Pad Prism 5.0 software.
# [4] = tested on: MX-1 mammary carcinoma human xenografts; assay: Efficacy after repeated iv bolus, MX-1 xenograft; assay type: in vivo, NMRI nude mice; conditions: day 29
# Description: FIG. 3. […] Results represent the mean body weight and tumor volume evolution±SEM (n=4).
# (§1) The anti-tumor activity of doxorubicin and PhAc-ALGP-Dox was tested in models of athymic mice (nude/nude NMRI) carrying ectopic xenografts of human LS-174T colon carcinoma or MX-1 mammary carcinoma.
# (§2) LS174T and MX-1 tumors were established by a subcutaneous implantation of cells (3×10^6 and 10^7 cells injected respectively) in the right flank of 6 weeks old female NMRI nude mice (Harlan). […] The day of the first injection animals were randomly assigned to groups of 4 animals. […] Compounds were delivered by bolus intravenous injection (i.v.) in the lateral tail vein at 10 μl/g. During the course of the experiment, clinical signs, body weight and tumor volume were controlled twice a week. Results are presented as the evolution of mean tumor volume as a function of time. Optimal T/C (ratio of mean tumor volume of treated versus control mice) values were used as a measure of treatment efficacy.
# [5] = tested on: LS174T colon carcinoma human xenografts; assay: Efficacy after repeated iv bolus, LS174T xenograft; conditions: for TGI [% (day)]: day 28
# Description: FIG. 2. Efficacy study of PhAc-ALGP-Dox in comparison with free Doxorubicin in NMRI nude mice bearing LS174T colon carcinoma human xenografts. Drugs or controls were administered by the i.v. route on day 0 and day 7. The mice receiving a constant volume (10 μL/g) of either saline (-●-;-◯-) or of the different dosing solutions: PhAc-ALGP-Dox 140 μmolKg (-▴-) and 160 μmol/kg (-×-); Dox 15 μmol/kg (-♦-). Results represent the mean body weight and tumor volume evolution±SEM (n=4).
# as §1, §2
# [6] = Pharmacokinetics and heart tissue quantification after single iv bolus
# Description: Time evolution of plasma concentration (A, B) and of cardiac tissue concentration (C, D) of Doxorubicin or PhAc-ALGP-Dox and its metabolites after i.v. bolus injection to OF-1 female wild type mice at the dose of 86.2 μmol/kg. Results represent the mean concentration±SD (n=3).
# Pharmacokinetic tissue distribution studies were performed using OF-1 mice. […] At different time points after drug administration (5 min, 30 min, 1 h, 4 h, 7 h, 16 h and 24 h) 3 mice per group were sacrificed by cervical dislocation and blood and heart tissue were collected. Hearts were incised and rinsed carefully in phosphate buffer saline (to eliminate blood in the cardiac cavities), dried on paper and frozen in liquid nitrogen. They were stored until analysis. Blood samples were centrifuged (10 min, 2000 g, 4° C.) to separate the plasma fraction, which was stored for analysis. The hearts were homogenized with an Ultraturrax homogenizer in 1.5 mL water. The protein concentration was measured using the microBCA protein assay (Pierce). The drug tissue quantification was made by HPLC after extraction: 150 μL of acetonitrile was added to the 50 μL samples. Samples were vortexed and centrifuged for 10 min at 13 000 rpm at room temperature. Supernatant was collected. Samples were buffered by addition of 200 mM formiate buffer pH 4.5 (1 V sample supernatant+3 V buffer) before HPLC analysis (fluo detection ex=235 nm em=560 nm).
smiles,measurement,setting,value
"COc1cccc2c1C(=O)c1c(O)c3c(c(O)c1C2=O)C[C@@](O)(C(=O)CO)C[C@@H]3O[C@H]1C[C@H](N)[C@H](O)[C@H](C)O1 [Doxorubicin, reference compound]",viability of Cor.At cardiomyocytes,[1]; 0.2 μg/ml,67%
same,toxic effect on Cor.At cardiomyocytes (in words),[1]; 20 μg/ml and 2 μg/ml,severe toxic effect
same,AUC,in vivo,70.3 µM·h
same,TGI [% (day)],[2]; 1 μmol/kg ip 2Q1D5×2W,"44% and 44 (35), n = 3%"
same,toxicity (in words),[2]; 1.5 μmol/Kg ip 2Q1D5×2W,very toxic
same,body weight loss (in words),[2],No significant body weight loss
same,TGD,[3]; 1 μmol/kg ip 2Q1D5×2W,5 days
same,mortality,[3]; 1 μmol/kg ip 2Q1D5×2W,one dead mouse was found at day 29
same,TGI [% (day)],"[3]; 1 μmol/kg ip 2Q1D5×2W, day 29","44(29), %"
same,TGD,[3]; 1.5 μmol/kg ip 2Q1D5×2W,9 days
same,TGI [% (day)],"[3]; 1.5 μmol/kg ip 2Q1D5×2W, day 29, n = 1","65(29), %"
same,TGI [% (day)],"[4]; 8 μmol/kg iv day 0, 3, 6, 9",65 (29) %
same,TGI [% (day)],[5]; 15 μmol/kg iv day 0 and 7,55 (28) %
same,drug plasma concentration eliminated in the first five minutes,[6]; i.v. bolus 86.2 μmol/kg,About 90%
"COc1cccc2c1C(=O)c1c(O)c3c(c(O)c1C2=O)CC(O)(C(=O)CO)CC3OC1CC(NC(=O)C2CCCN2C(=O)CNC(=O)C(CC(C)C)NC(=O)C(C)NC(=O)CP(=O)(O)O)C(O)C(C)O1 (centres unmarked) [PhAc-ALGP-Dox, PhAc-ALGP-doxorubicin]",toxic effect (in words),[1]; all concentrations lower than 20 μg/ml,did not show any toxic effect
same,AUC,in vivo,44.2 µM·h
same,TGI [% (day)],[2]; 50 μmol/kg ip 2Q1D5×2W,"76% and 76 (35), n = 4%"
same,body weight loss (in words),[2],No significant body weight loss
same,TGD,[3]; 25 μmol/kg ip 2Q1D5×2W,9 days
same,TGI [% (day)],"[3]; 25 μmol/kg ip 2Q1D5×2W, day 29","54(29), %"
same,TGD,[3]; 35 μmol/kg ip 2Q1D5×2W,9 days
same,TGI [% (day)],"[3]; 35 μmol/kg ip 2Q1D5×2W, day 29","53(29), %"
same,TGD,[3]; 50 μmol/kg ip 2Q1D5×2W,22 days
same,maximum body weight loss,"[3]; 50 μmol/kg ip 2Q1D5×2W, day 9",13%
same,TGI [% (day)],"[3]; 50 μmol/kg ip 2Q1D5×2W, day 29","73% and 73(29), %"
same,TGI [% (day)],"[4]; 100 μmol/kg iv day 0, 3, 6, 9",60 (29) %
same,body weight loss (maximum),"[5]; 140 μmol/kg and 160 μmol/kg iv, twice",≤ 10%
same,TGI [% (day)],[5]; 140 μmol/kg iv day 0 and 7,79 (28) %
same,TGI [% (day)],[5]; 160 μmol/kg iv day 0 and 7,81 (28) %
same,Dox heart AUC versus Dox administration (times lower),[6]; equimolar 86.2 μmol/kg iv,25 times
same,plasma AUC of Doxorubicin after Doxorubicin versus after PhAc-ALGP-Dox (times higher),[6]; equimolar 86.2 μmol/kg iv,63 times
same,drug plasma concentration eliminated in the first five minutes,[6]; i.v. bolus 86.2 μmol/kg,About 90%
same,"fraction hydrolysed into LGP-Dox, GP-Dox and Dox in plasma",[6]; i.v. bolus 86.2 μmol/kg,Less than 1%
same,time after which metabolites were no longer detected in plasma,[6]; i.v. bolus 86.2 μmol/kg,1 h
same,Heart AUC of PhAc-ALGP-Dox,[6]; one i.v. bolus 86.2 μmol/kg,23 pmol · h/mg protein

# Source: patent publication US10076576B2, “Minimally toxic prodrugs” (priority 2012, dated 2018)
